The subject of assay [1] is oxytocin-induced uterine contractions. Put plainly: In vivo model for inhibition of oxytocin-induced uterine contractions. The arrangement: species or system rat. The note with it: dose 10 mg/kg, anaesthetised DES-treated non-pregnant female rats. As to the method:
f) In vivo Model for Inhibition of Uterine Contractions
The assay evaluates the biological effect of tested compounds in an in vivo model of preterm labor, premature birth.
Non-pregnant Charles River CD (SD) BR female rats (9-10 weeks old, 200-250 g) were treated at 18 and 24 hours before the experiment with 250 μg/kg, i.p. diethylstilbestrol (DES). For the assay, the animal was anaesthetised with urethane (1.75 g/kg, i.p.) and placed on a homeothermic operating table. The trachea was isolated and cannulated with a suitable polyethylene (PE) tubing. A midline incision at the hypogastrium level was made and one uterine horn exposed, its cephalic end cannulated with a PE240 tubing and, after filling the internal cavity with 0.2 ml of sterile physiological saline, connected to a “Gemini” amplifying/recording system via a P23ID Gould Statham pressure transducer. […]
The contractile response of the uterus to oxytocin was quantified by measuring the intra-uterine pressure and the number of contractions. The effect of the reference and test compounds was evaluated by comparing pre- and post-treatment pressure values. […]
The activities of the triazole derivatives claimed in the Formula I can be assessed using the above described in vivo biological assay. […]

For assay [2], the target named is T1, human Oxytocin (hOT) receptor (Homo sapiens, UniProt P30559).
T1 construct: expressed in transfected cells; host or cells: HEK293EBNA (membranes)
T1 sequence (P30559 1-389): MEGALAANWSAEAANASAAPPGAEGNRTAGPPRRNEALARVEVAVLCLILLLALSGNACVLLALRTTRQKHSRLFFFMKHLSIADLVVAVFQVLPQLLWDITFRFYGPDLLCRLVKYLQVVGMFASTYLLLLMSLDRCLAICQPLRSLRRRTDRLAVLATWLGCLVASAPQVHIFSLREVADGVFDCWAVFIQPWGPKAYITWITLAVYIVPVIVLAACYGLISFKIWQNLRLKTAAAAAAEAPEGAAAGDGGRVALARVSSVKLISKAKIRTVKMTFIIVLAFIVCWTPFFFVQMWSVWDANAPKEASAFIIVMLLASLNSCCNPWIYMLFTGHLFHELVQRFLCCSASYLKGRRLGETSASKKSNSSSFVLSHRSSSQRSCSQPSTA
As to the kind of experiment: In vitro competition binding assay on hOT receptor with scintillation proximity assay ([125I]-OVTA). The settings on record: inhibition of 125I-OVTA binding; membranes from HEK293EBNA cells expressing the hOT receptor; read-out: Binding Affinity hOT-R (Ki). As to the method: a) In vitro Competition Binding Assay on hOT Receptor with Scintillation Proximity Assay (18).
This assay allows to determine the affinity of the test compounds for the human Oxytocin (hOT) receptor. Membranes from HEK293EBNA (cells expressing the hOT receptor) were suspended in buffer containing 50 mM Tris-HCl, pH 7.4, 5 mM MgCl2 and 0.1% BSA (w/v). The membranes ([…]) were mixed with 0.1 mg SPA bead coated with wheat-germ aglutinin (WGA-PVT-Polyethylene Imine beads from Amersham) and […] of the radiolabelled [^125I]-OVTA (OVTA being Omithin Vasoactive, an analogue of OT for competitive binding experiments). Non-specific binding was determined in the presence of 1 μM Oxytocin. The total assay volume was 100 μL. The plates (Corning® NBS plate) were incubated at room temperature for 30 min and counted on a Mibrobeta® plate scintillation counter. Competitive binding was performed in presence of compounds of formula (1) at the following concentrations: 30 μM, 10 μM, 1 μM, 300 nM, 100 nM 10 nM, 1 nM, 100 pM, 10 pM. The competitive binding data were analysed using the iterative, nonlinear, curve-fitting program, “Prism” (GraphPad Software, Inc).
The ability of triazole derivatives of formula (I) to inhibit the binding of ^125I-OVTA to the OT-receptor was assessed using the above described in vitro biological assay. Representative values for some example compounds are given in Table 3 where the binding affinity of the compounds is expressed by the inhibition constant (Ki; μM). From these values, it can be derived that said test compounds according to formula I do show a significant binding to the oxytocin receptor.
For orientation: Scintillation proximity formats need no separation of bound from free tracer.

Assay [3] has as its target T2, hOT receptor (Homo sapiens, UniProt P30559).
T2 construct: expressed in transfected cells; host or cells: HEK293EBNA
T2 sequence (P30559 1-389): T1 sequence (P30559 1-389)
As to the kind of experiment: Inhibition of oxytocin mediated Ca2+-mobilization by FLIPR in HEK293EBNA cells expressing the hOT receptor. The class given is cell-based. The note with it: OT 40 nM, fluo-4 FLIPR, read-out: Inhibition of Ca2+ mobilisation, hOT-R IC50. The source says: c) Functional Assay No. 1: Inhibition of Oxytocin Mediated Ca^2+-mobilization by FLIPR® (Fluorimetric Imaging Plate Reader)
The action of OT on the OT-receptor triggers a complex cascade of events in the cell which leads to an increase in the intra-cytoplasmic Ca^2+ concentration. This increase in Ca^2+ concentration results from both calcium release from the sarcoplasmic reticulum (calcium stores) into the cytoplasm and from calcium influx from the extracellular space through Ca^2+ channels. This Ca^2+ mobilization into the cytoplasm triggers the contractile machinery of the myometrial cells which leads to uterine contractions (4 and 19).
This assay allows the measurement of the inhibition of OT/OT-R mediated calcium mobilization by test compounds of formula (1).
FLIPR® is a fluorimetric imaging device using a laser (Argon-ion laser) for simultaneous illumination and reading (cooled CCD camera) of each well of a 96-well-plate, thus enabling rapid measurements on a large number of samples.
Preparing the plates: FLIPR-plates were pre-coated with PLL (Poly-L-Lysine) 10 μg/ml+0.1% gelatine to attach HEK293EBNA cells (Human Embryonic Kidney cells expressing the hOT receptor) and incubated for 30 min up to 2 days at 37° C. The cells were plated out into 96-well-plates (60000 cells/well).
Labelling with fluo-4: 50 μg of fluo-4 (Ca2+ sensitive fluorescent dye) were dissolved in 20 μl pluronic acid (20% in DMSO). The dissolved fluo-4 was then diluted in 10 ml DMEM ([…])-F12 culture medium. […]
The relative fluorescence of Fluo (λex=488 nm, λem=590 nm) is then measured by the FLIPR in presence or absence of compounds of formula (I). The fluorescence of the marker being sensitive to the amount of Ca^2+, the Ca^2+ movements can be detected. Then, it can be determined the ability of compounds of formula (I) to antagonize the oxytocin-induced intracellular Ca^2+-mobilization mediated by the oxytocin receptor.
The activities of the triazole derivatives according to formula I were assessed using the above described in vitro biological assay. […]
(In general: A change in cytosolic calcium serves as a functional read-out for many receptors and channels.)

From US7468385B2, “Triazoles as oxytocin antagonists” (Laboratoires Serono SA, priority 2001, dated 2008) come the findings set out here.

In general, Ki refers to the equilibrium dissociation constant of an inhibitor or competing ligand from its target. The IC50 is the concentration that gives 50% inhibition.

Consider `COc1cccc(-n2c(CCC(=O)NCc3ccccc3OC)nnc2SCc2cccc(Cl)c2)c1` [Example 1, 3-[5-[(3-chlorobenzyl)sulfanyl]-4-(3-methoxyphenyl)-4H-1,2,4-triazol-3-yl]-N-(2-methoxybenzyl)propanamide], for which the “% Reduction of Uterine Contraction” value in assay [1] is reported as 16.9 ± 5.1%. In addition, the Ki in assay [2] is 45 nM. The half-inhibitory concentration (IC50) in assay [3] amounted to 26 nM.

For `COc1ccccc1CNC(=O)CCc1nnc(SCc2cccc(C)c2)n1-c1cccc(Cl)c1` [Example 3, 3-{4-(3-chlorophenyl)-5-[(3-methylbenzyl)sulfanyl]-4H-1,2,4-triazol-3-yl}-N-(2-methoxybenzyl)propanamide], the Ki in assay [2] is 134 nM.

As for `COCCCn1c(CCC(=O)NCc2ccccc2OC)nnc1SCc1cccc(Cl)c1` [Example 4, 3-[5-[(3-chlorobenzyl)sulfanyl]-4-(3-methoxypropyl)-4H-1,2,4-triazol-3-yl]-N-(2-methoxybenzyl)propanamide], the inhibitory constant (Ki) in assay [2] turned out to be 326 nM.

In the case of `COc1ccccc1CNC(=O)CCc1nnc(SCc2cccc(F)c2)n1-c1ccc(C)cc1` [Example 5, 3-[5-[(3-fluorobenzyl)sulfanyl]-4-(4-methylphenyl)-4H-1,2,4-triazol-3-yl]-N-(2-methoxybenzyl)propanamide], the Ki in assay [2] was 127 nM.

In the case of `COc1ccccc1CNC(=O)CCc1nnc(SCc2cccc(C)c2)n1Cc1ccc(C)cc1` [Example 6, N-(2-methoxybenzyl)-3-{4-(4-methylbenzyl)-5-[(3-methylbenzyl)sulfanyl]-4H-1,2,4-triazol-3-yl}propanamide], in assay [2], the Ki worked out at 246 nM.

On to `COc1ccccc1CNC(=O)CCc1nnc(SCc2cccc(Cl)c2)n1-c1cccc(C)c1` [Example 8, 3-[5-[(3-chlorobenzyl)sulfanyl]-4-(3-methylphenyl)-4H-1,2,4-triazol-3-yl]-N-(2-methoxybenzyl)propanamide], for which, in assay [2], the Ki came out at 229 nM.

On to `COc1ccccc1CNC(=O)CCc1nnc(SCc2ccccc2)n1-c1ccc(C)cc1` [Example 9, 3-[5-(benzylsulfanyl)-4-(4-methylphenyl)-4H-1,2,4-triazol-3-yl]-N-(2-methoxybenzyl)propanamide], for which, in assay [2], the Ki stood at 205 nM.

Regarding `COc1ccccc1CNC(=O)CCc1nnc(SCc2ccc(F)cc2)n1-c1cccc(Cl)c1` [Example 11, 3-{4-(3-chlorophenyl)-5-[(4-fluorobenzyl)sulfanyl]-4H-1,2,4-triazol-3-yl}-N-(2-methoxybenzyl)propanamide], the Ki in assay [2] was found to be 329 nM.

In the case of `COc1ccccc1CNC(=O)CCc1nnc(SCc2ccccc2)n1-c1cccc(Cl)c1` [Example 12, 3-[5-(benzylsulfanyl)-4-(3-chlorophenyl)-4H-1,2,4-triazol-3-yl]-N-(2-methoxybenzyl)propanamide], the Ki in assay [2] was 439 nM.

On to `CCCCNC(=O)CCc1nnc(SCc2cccc(Cl)c2)n1-c1cccc(Cl)c1` [Example 15, N-butyl-3-[5-[(3-chlorobenzyl)sulfanyl]-4-(3-chlorophenyl)-4H-1,2,4-triazol-3-yl]propanamide], for which the Ki in assay [2] was 245 nM.

Regarding `COc1cccc(-n2c(CCC(=O)NCc3ccccc3OC)nnc2SCc2cccc(C)c2)c1` [Example 16, N-(2-methoxybenzyl)-3-{4-(3-methoxyphenyl)-5-[(3-methylbenzyl)sulfanyl]-4H-1,2,4-triazol-3-yl}propanamide], the Ki in assay [2] amounted to 197 nM.

As for `COc1ccccc1CNC(=O)CCCc1nnc(SCc2cccc(Cl)c2)n1-c1ccccc1` [Example 137, 4-{5-[(3-chlorobenzyl)sulfanyl]-4-phenyl-4H-1,2,4-triazol-3-yl}-N-(2-methoxybenzyl)butanamide], in assay [2], the Ki worked out at 2550 nM. Also, the half-maximal inhibitory concentration (IC50) in assay [3] came to 486 nM.

Regarding `COc1ccccc1CNC(=O)CCCCc1nnc(SCc2cccc(Cl)c2)n1-c1cccc(Cl)c1` [Example 184, 5-[5-[(3-chlorobenzyl)sulfanyl]-4-(3-chlorophenyl)-4H-1,2,4-triazol-3-yl]-N-(2-methoxybenzyl)pentanamide], the Ki in assay [2] came out at 481 nM.

Turning to `COc1ccccc1CNC(=O)CCCCc1nnc(SCc2cccc(Cl)c2)n1-c1ccccc1` [Example 185, 5-{5-[(3-chlorobenzyl)sulfanyl]-4-phenyl-4H-1,2,4-triazol-3-yl}-N-(2-methoxybenzyl)pentanamide], the Ki in assay [2] worked out at 603 nM. Moreover, the IC50 in assay [3] was found to be 58 nM.

As for `COc1ccccc1CNC(=O)CCCCc1nnc(SCc2cccc(C)c2)n1CCc1ccccc1` [Example 189, N-(2-methoxybenzyl)-5-[5-[(3-methylbenzyl)sulfanyl]-4-(2-phenylethyl)-4H-1,2,4-triazol-3-yl]pentanamide], in assay [2], the Ki is 515 nM.
